Source: US20230021483A1, “[…] […] METHOD AND CLASSIFICATION OF PHARMACEUTICAL COMPONENTS BY USING TRANSCRIPTOMES” (National Institutes of Biomedical Innovation, Health and …, priority 2016, published 2023)

How the values were obtained:
[1] = tested on: preferentially upregulated genes in LV, SP, LN; assay: Z-score-based differential gene expression analysis (adjuvant group- or adjuvant-associated genes, 40 module mapping, TargetMine annotation); format: in vivo, C57BL/6 mice; conditions: ID, LV
From the text: Each sample's FC value was converted into a z-score on a gene basis by using the entire data set for each organ. The Z-score of the triplicates of interest were summed for each adjuvant. For example, the three sample z-score in the LV sample following cdiGMP administration was summed on a gene-by-gene basis, after which the summed scores of >3 genes were selected as relatively preferentially expressed genes in the LV after cdiGMP administration. The following threshold was applied for selections. […] G2^LV: ALM_IP(z>1) & bCD(z>1) & ENDCN(z>1) & FCA(z>1). […] G4^LV: MALP2s(z>3). […] G2^SP: ENDCN_x2+ENDCN_x3(z>2) & ALM_IP(z>3) & bCD(z>3). […] G4^SP: ADX_ID_x2+ADX_ID_x3(z>2) & ADX_IP(z>3) & MALP2s(z>3). […] G2^LN: bCD(z>3) & FCA(z>3). […] G5^LN: K3(z>1.5) & K3SPG_x1+K3SPG_x2(z>1) & D35_x1+D35_x3(z>1). G6^LN: AddaVax(z>3).

[2] = tested on: inguinal lymph nodes (LN); assay: Whole organ transcriptome (GeneChip microarray) of draining inguinal lymph nodes 6 h after adjuvant administration: sDEGs, gene modules, hierarchical clustering; format: in vivo, C57BL/6 mice; conditions: hierarchical clustering, lymph node; note: key: G1 (interferon signaling); G2 (metabolism of lipids and lipoproteins); G3 (response to stress); G4 (response to wounding); G5 (phosphate-containing compound metabolic process); G6 (phagosome)

With `CCOCc1nc2c(N)nc3ccccc3c2n1CC(C)(C)O` [R848, 4-amino-2-(ethoxymethyl)-a,a-dimethyl-1H-imidazo[4,5-c]quinoline-1-ethanol] as the compound, how does the “Adar 1425405_a_at (Group G1, Modules 20)” value ([1]; sample x1) read?
The value was 1.63.

And the “Adar 1434268_at (Group G1, Modules 20)” value ([1]; sample x1)?
Its value is 2.77.

What about the “Ddx58 1436562_at (Group G1, Modules 20)” value ([1]; sample x1) of the same compound?
The value was 2.64.

What about the “Ddx58 1456890_at (Group G1, Modules 20)” value ([1]; sample x1) of the same compound?
The value was 2.42.

What about the “Eif2ak2 1422005_at (Group G1, Modules 20)” value (“Eif2ak2 1422005_at” for short) ([1]; sample x1) of the same compound?
The value was 2.43.

What about the “G3bp2 1421323_a_at (Group G1, Modules 20)” value (“G3bp2 1421323_a_at” for short) ([1]; sample x1) of the same compound?
The value was 2.13.

What about the “Gm9706///Isg15 1431591_s_at (Group G1, Modules 20)” value (“Gm9706///Isg15 1431591_s_at” for short) ([1]; sample x1) of the same compound?
Its value is 2.55.

What about the “H2-T10///H2-T22///H2-T9 1449875_s_at (Group G1, Modules 20)” value (from here on “H2-T10///H2-T22///H2-T9 1449875_s_at”) ([1]; sample x1) of the same compound?
Its value is 2.05.

What about the “Ifih1 1426276_at (Group G1, Modules 20)” value ([1]; sample x1) of the same compound?
The value was 3.25.

What about the “Ifit1 1450783_at (Group G1, Modules 20)” value ([1]; sample x1) of the same compound?
Its value is 1.54.

What about the “Ifit3 1449025_at (Group G1, Modules 20)” value ([1]; sample x1) of the same compound?
Its value is 2.19.

And the “Irf7 1417244_a_at (Group G1, Modules 20)” value ([1]; sample x1)?
Its value is 2.27.

And the “Irgm1 1418825_at (Group G1, Modules 20)” value ([1]; sample x1)?
The value was 2.87.

What about the “Mndal 1426906_at (Group G1, Modules 20)” value ([1]; sample x1) of the same compound?
The value was 1.65.

And the “Pml 1448757_at (Group G1, Modules 20)” value ([1]; sample x1)?
The value was 1.77.

And the “Pml 1456103_at (Group G1, Modules 20)” value ([1]; sample x1)?
The value was 3.66.

And the “Rnf213 1455500_at (Group G1, Modules 20)” value ([1]; sample x1)?
Its value is 1.29.

What about the “Rsad2 1436058_at (Group G1, Modules 20)” value ([1]; sample x1) of the same compound?
Its value is 1.97.

And the “Shisa5 1423986_a_at (Group G1, Modules 20)” value (shortened to “Shisa5 1423986_a_at”) ([1]; sample x1)?
The value was 2.93.

And the “Shisa5 1437503_a_at (Group G1, Modules 20)” value (shortened to “Shisa5 1437503_a_at”) ([1]; sample x1)?
The value was 3.09.

And the “Stat1 1450033_a_at (Group G1, Modules 20)” value (shortened to “Stat1 1450033_a_at”) ([1]; sample x1)?
Its value is 1.4.

And the “Stat1 1450034_at (Group G1, Modules 20)” value ([1]; sample x1)?
Its value is 2.37.

And the “Tdrd7 1426716_at (Group G1, Modules 20)” value ([1]; sample x1)?
The value was 1.79.

And the “Tor1aip2 1418115_s_at (Group G1, Modules 20)” value (from here on “Tor1aip2 1418115_s_at”) ([1]; sample x1)?
The value was 1.53.

What about the “Tor1aip2 1418116_at (Group G1, Modules 20)” value (“Tor1aip2 1418116_at” below) ([1]; sample x1) of the same compound?
Its value is 1.45.

And the “Tor1aip2 1435526_at (Group G1, Modules 20)” value (“Tor1aip2 1435526_at” for short) ([1]; sample x1)?
The value was 3.12.

And the “Trim12a 1437432_a_at (Group G1, Modules 20)” value (from here on “Trim12a 1437432_a_at”) ([1]; sample x1)?
The value was 2.13.

And the “Uba7 1426970_a_at (Group G1, Modules 20)” value ([1]; sample x1)?
The value was 2.64.

What about the “Adar 1425405_a_at (Group G1, Modules 20)” value ([1]; sample x2) of the same compound?
The value was 1.17.

What about the “Adar 1434268_at (Group G1, Modules 20)” value ([1]; sample x2) of the same compound?
The value was 1.8.

What about the “Ddx58 1436562_at (Group G1, Modules 20)” value ([1]; sample x2) of the same compound?
Its value is 2.33.

What about the “Ddx58 1456890_at (Group G1, Modules 20)” value ([1]; sample x2) of the same compound?
Its value is 1.34.

And the “Eif2ak2 1422005_at” value ([1]; sample x2)?
The value was 1.56.

And the “G3bp2 1421323_a_at” value ([1]; sample x2)?
The value was 1.21.

And the “Gm9706///Isg15 1431591_s_at” value ([1]; sample x2)?
Its value is 2.1.

And the “H2-T10///H2-T22///H2-T9 1449875_s_at” value ([1]; sample x2)?
Its value is 2.01.

And the “Ifih1 1426276_at (Group G1, Modules 20)” value ([1]; sample x2)?
Its value is 2.46.

And the “Ifit1 1450783_at (Group G1, Modules 20)” value ([1]; sample x2)?
The value was 1.14.

What about the “Ifit3 1449025_at (Group G1, Modules 20)” value ([1]; sample x2) of the same compound?
Its value is 1.76.

What about the “Irf7 1417244_a_at (Group G1, Modules 20)” value ([1]; sample x2) of the same compound?
Its value is 2.39.

What about the “Irgm1 1418825_at (Group G1, Modules 20)” value ([1]; sample x2) of the same compound?
The value was 2.12.

What about the “Mndal 1426906_at (Group G1, Modules 20)” value ([1]; sample x2) of the same compound?
The value was 1.42.

And the “Pml 1448757_at (Group G1, Modules 20)” value ([1]; sample x2)?
The value was 1.53.

What about the “Pml 1456103_at (Group G1, Modules 20)” value ([1]; sample x2) of the same compound?
Its value is 1.62.

What about the “Rnf213 1455500_at (Group G1, Modules 20)” value ([1]; sample x2) of the same compound?
Its value is 1.03.

What about the “Rsad2 1436058_at (Group G1, Modules 20)” value ([1]; sample x2) of the same compound?
The value was 1.77.

What about the “Shisa5 1423986_a_at” value ([1]; sample x2) of the same compound?
The value was 2.32.

And the “Shisa5 1437503_a_at” value ([1]; sample x2)?
The value was 2.43.

What about the “Stat1 1450033_a_at” value ([1]; sample x2) of the same compound?
The value was 1.2.

What about the “Stat1 1450034_at (Group G1, Modules 20)” value ([1]; sample x2) of the same compound?
The value was 1.92.

What about the “Tdrd7 1426716_at (Group G1, Modules 20)” value ([1]; sample x2) of the same compound?
Its value is 1.21.

What about the “Tor1aip2 1418115_s_at” value ([1]; sample x2) of the same compound?
The value was 1.08.

What about the “Tor1aip2 1418116_at” value ([1]; sample x2) of the same compound?
The value was 1.22.

And the “Tor1aip2 1435526_at” value ([1]; sample x2)?
Its value is 2.18.

And the “Trim12a 1437432_a_at” value ([1]; sample x2)?
The value was 1.94.

And the “Uba7 1426970_a_at (Group G1, Modules 20)” value ([1]; sample x2)?
The value was 2.42.

What about the “Adar 1425405_a_at (Group G1, Modules 20)” value ([1]; sample x3) of the same compound?
Its value is 0.96.

And the “Adar 1434268_at (Group G1, Modules 20)” value ([1]; sample x3)?
The value was 1.

And the “Ddx58 1436562_at (Group G1, Modules 20)” value ([1]; sample x3)?
Its value is 1.6.

And the “Ddx58 1456890_at (Group G1, Modules 20)” value ([1]; sample x3)?
The value was 0.95.

And the “Eif2ak2 1422005_at” value ([1]; sample x3)?
The value was 1.09.

And the “G3bp2 1421323_a_at” value ([1]; sample x3)?
The value was 1.04.

What about the “Gm9706///Isg15 1431591_s_at” value ([1]; sample x3) of the same compound?
The value was 1.95.

And the “H2-T10///H2-T22///H2-T9 1449875_s_at” value ([1]; sample x3)?
The value was 1.77.

What about the “Ifih1 1426276_at (Group G1, Modules 20)” value ([1]; sample x3) of the same compound?
Its value is 2.36.

What about the “Ifit1 1450783_at (Group G1, Modules 20)” value ([1]; sample x3) of the same compound?
Its value is 0.63.

What about the “Ifit3 1449025_at (Group G1, Modules 20)” value ([1]; sample x3) of the same compound?
The value was 1.49.

And the “Irf7 1417244_a_at (Group G1, Modules 20)” value ([1]; sample x3)?
The value was 2.37.

And the “Irgm1 1418825_at (Group G1, Modules 20)” value ([1]; sample x3)?
Its value is 2.02.

What about the “Mndal 1426906_at (Group G1, Modules 20)” value ([1]; sample x3) of the same compound?
The value was 1.21.

And the “Pml 1448757_at (Group G1, Modules 20)” value ([1]; sample x3)?
Its value is 0.66.

And the “Pml 1456103_at (Group G1, Modules 20)” value ([1]; sample x3)?
Its value is 1.29.

And the “Rnf213 1455500_at (Group G1, Modules 20)” value ([1]; sample x3)?
The value was 0.72.

And the “Rsad2 1436058_at (Group G1, Modules 20)” value ([1]; sample x3)?
Its value is 0.67.

And the “Shisa5 1423986_a_at” value ([1]; sample x3)?
The value was 2.23.

What about the “Shisa5 1437503_a_at” value ([1]; sample x3) of the same compound?
Its value is 2.49.

What about the “Stat1 1450033_a_at” value ([1]; sample x3) of the same compound?
The value was 1.05.

What about the “Stat1 1450034_at (Group G1, Modules 20)” value ([1]; sample x3) of the same compound?
The value was 1.52.

And the “Tdrd7 1426716_at (Group G1, Modules 20)” value ([1]; sample x3)?
Its value is 0.94.

And the “Tor1aip2 1418115_s_at” value ([1]; sample x3)?
The value was 0.54.

What about the “Tor1aip2 1418116_at” value ([1]; sample x3) of the same compound?
The value was 0.89.

What about the “Tor1aip2 1435526_at” value ([1]; sample x3) of the same compound?
The value was 1.22.

What about the “Trim12a 1437432_a_at” value ([1]; sample x3) of the same compound?
The value was 1.68.

What about the “Uba7 1426970_a_at (Group G1, Modules 20)” value ([1]; sample x3) of the same compound?
The value was 2.27.

What about the “adjuvant group (cluster) in LN” value [2] of the same compound?
The value was “G1”.
